Twelve compounds from ChEMBL document CHEMBL1201862, “PubChem BioAssay data set” (2004) can be followed below.

Each structure is given as a SMILES string. The source made the active and inactive calls.

The nature of assay [1]: inhibitors of Vif binding to APOBEC3G peptide, primary screen, biochemical, TR-FRET, GST-Vif 1-94, biotin-A3G peptide, dose response retest (AID 1117319).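 Note: inhibitors lower the FRET signal by blocking Vif and A3G binding.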 It counts as functional. (In general: In TR-FRET formats the signal depends on donor and acceptor labels being close together.)
Assay [2] addresses Mitogen-activated protein kinase 10 (Homo sapiens, UniProt P53779). Kind of assay: Dose response biochemical screening assay for inhibitors of c-Jun N-Terminal Kinase 3 (JNK3). [Related pubchem assays: 746 ].
Assay [3] has as its target FAD-linked sulfhydryl oxidase ALR (Homo sapiens, UniProt P55789). Kind of assay: inhibitors of human ALR sulfhydryl oxidase, dose response, biochemical, H2O2 detection, luminescence, cherry-pick (AID 493248).
For assay [4], the target named is T1, Rac GTPase-activating protein 1 (Homo sapiens, UniProt Q9H0H5).
T1 sequence (Q9H0H5 whole entry): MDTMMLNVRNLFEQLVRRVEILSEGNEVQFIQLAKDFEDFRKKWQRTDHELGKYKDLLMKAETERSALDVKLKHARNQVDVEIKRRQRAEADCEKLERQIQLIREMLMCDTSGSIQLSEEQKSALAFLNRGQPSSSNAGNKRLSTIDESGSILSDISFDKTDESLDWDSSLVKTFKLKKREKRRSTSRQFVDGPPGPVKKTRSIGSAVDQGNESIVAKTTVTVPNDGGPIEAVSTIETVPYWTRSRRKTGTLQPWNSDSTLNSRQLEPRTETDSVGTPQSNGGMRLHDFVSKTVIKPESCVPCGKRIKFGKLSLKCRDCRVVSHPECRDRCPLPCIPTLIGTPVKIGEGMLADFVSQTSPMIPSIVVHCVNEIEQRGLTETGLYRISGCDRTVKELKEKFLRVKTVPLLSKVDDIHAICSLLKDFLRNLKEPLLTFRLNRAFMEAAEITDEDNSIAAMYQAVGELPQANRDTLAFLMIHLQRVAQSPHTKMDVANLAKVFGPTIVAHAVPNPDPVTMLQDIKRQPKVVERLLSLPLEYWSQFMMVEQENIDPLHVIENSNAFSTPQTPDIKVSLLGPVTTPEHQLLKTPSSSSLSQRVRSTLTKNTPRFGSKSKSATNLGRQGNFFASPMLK
As to the kind of experiment: MgcRacGAP GTPase-activating activity inhibitors, confirmation, biochemical, ADP Hunter fluorescence, primary and confirmatory (AID 624330). It counts as functional.

Assay [5] addresses Protein Tat (Human immunodeficiency virus type 1 group M subtype B (isolate HXB2)(HIV-1), UniProt P04608). It counts as functional.
Assay [6] can be described thus: P. falciparum late gametocyte killing, dose response, luminescence (AID 1117278).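 Note: gametocytes exposed to compound for 24 hours.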 Type of assay: functional, cell-based.
A short description of assay [7]: Jurkat T cell cytotoxicity, dose response, cytotoxicity control for P. falciparum gametocyte viability project, luminescence (AID 1117277).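 Note: potency reflects loss of cellular ATP meaning fewer viable cells.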 Type of assay: functional, cell-based.
Assay [8] has as its target T2, Aryl hydrocarbon receptor (Homo sapiens, UniProt P35869).
T2 sequence (P35869 whole entry): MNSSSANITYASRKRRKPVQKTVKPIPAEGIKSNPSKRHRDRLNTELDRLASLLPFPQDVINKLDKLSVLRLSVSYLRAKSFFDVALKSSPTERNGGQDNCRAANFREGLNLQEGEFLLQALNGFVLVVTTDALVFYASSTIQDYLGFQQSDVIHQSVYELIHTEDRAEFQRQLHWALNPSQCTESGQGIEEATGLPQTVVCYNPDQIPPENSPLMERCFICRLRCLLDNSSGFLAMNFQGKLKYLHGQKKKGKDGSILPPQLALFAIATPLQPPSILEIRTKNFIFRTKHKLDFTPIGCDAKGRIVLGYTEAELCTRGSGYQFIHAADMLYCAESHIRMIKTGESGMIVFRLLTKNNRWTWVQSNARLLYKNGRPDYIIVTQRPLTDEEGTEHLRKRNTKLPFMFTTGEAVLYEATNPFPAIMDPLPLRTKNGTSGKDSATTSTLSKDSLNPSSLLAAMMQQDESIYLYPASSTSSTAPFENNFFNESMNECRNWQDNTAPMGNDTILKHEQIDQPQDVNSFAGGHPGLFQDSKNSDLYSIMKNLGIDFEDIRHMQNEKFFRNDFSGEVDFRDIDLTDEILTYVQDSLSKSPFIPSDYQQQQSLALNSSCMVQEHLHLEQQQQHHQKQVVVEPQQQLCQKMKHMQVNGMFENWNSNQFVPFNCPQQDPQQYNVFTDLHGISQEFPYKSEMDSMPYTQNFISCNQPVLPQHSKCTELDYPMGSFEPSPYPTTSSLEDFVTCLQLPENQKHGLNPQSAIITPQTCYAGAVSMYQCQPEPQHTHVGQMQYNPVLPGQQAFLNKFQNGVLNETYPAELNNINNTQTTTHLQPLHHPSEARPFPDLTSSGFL
As to the kind of experiment: Luminescence-based cell-based high throughput dose response assay for activators of the Aryl Hydrocarbon Receptor (AHR). [Related pubchem assays: 2796 (Primary screen (AHR activators in singlicate)), 2845 (Confirmation screen (AHR activators in triplicate)), 434939 (Counterscreen (PXR activators in triplicate)), 2804 (Summary (AHR activators))]. It counts as ADME.

In assay [9] the target is Sphingosine 1-phosphate receptor 2 (Homo sapiens, UniProt O95136). As to the kind of experiment: Dose Response Cell Based Assay for Antagonists of the S1P2 Receptor. [Related pubchem assays: 856, 736 ]. Type of assay: functional.
Assay [10] in a line: inhibitors of intracellular T. cruzi replication, confirmation, NIH3T3 host cells, beta-gal luminescence (AID 2044).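 Note: intracellular parasites grown in NIH/3T3 mouse fibroblasts as host cells; luminescent beta-galactosidase reporter signal from transgenic T. cruzi replicating inside host cells; inhibitors lower the luminescence signal.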 Type of assay: functional, cell-based.
Assay [11] in a line: cytotoxicity toward NIH3T3 fibroblasts, dose response, counter-screen, cell-based, ATP luminescence, mouse fibroblasts (AID 2010).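 Note: cells exposed to compound for about 90 hours before reading.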 It counts as functional.
The target in assay [12] is Paired box protein Pax-8 (Homo sapiens, UniProt Q06710). As to the kind of experiment: inhibitors of PAX8-driven TPO luciferase reporter, dose response, RMG-I cells, cherry-pick (AID 687027).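 Note: luciferase reporter driven by Pax8 target thyroperoxidase promoter measured by SteadyGlo luminescence.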 Type of assay: functional, cell-based.
Assay [13] in a line: IOSE-T80 ovarian epithelial cell cytotoxicity, dose response, cytotoxicity control for PAX8 inhibitor project, plate reader, dry powder samples (AID 743045). Type of assay: functional, cell-based.
Assay [14] can be described thus: A2780 ovarian cancer cell cytotoxicity, dose response, cytotoxicity control, plate reader, dry powder samples (AID 743046). It counts as functional, cell-based.
Assay [15] can be described thus: NIH:OVCAR-3 ovarian cancer cell cytotoxicity, dose response, PAX8 inhibitor project, plate reader, dry powder samples (AID 743044). Type of assay: functional, cell-based.
Assay [16] is described as follows: A549 cell cytotoxicity, dose response, cytotoxicity control, plate reader, cherry-pick, antagonist series (AID 743412). Type of assay: functional, cell-based.
Assay [17] can be described thus: HepG2 cell cytotoxicity, dose response, cytotoxicity control, plate reader, cherry-pick, antagonist series (AID 743416). Type of assay: functional, cell-based.
Assay [18] can be described thus: IGROV1 ovarian cancer cell cytotoxicity, dose response, PAX8 inhibitor project, plate reader, dry powder samples (AID 743043). It counts as functional, cell-based. As to conditions: IGROV-1.
Assay [19] can be described thus: LGR2 antagonists, dose response, cell-based, HEK293, CRE-luciferase reporter, cherry pick, set 2 (AID 743343).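 Note: transfected cells were stimulated with diluted bursicon conditioned medium after compound addition.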 It counts as functional. For orientation: A reporter such as luciferase makes a cellular process visible.
A short description of assay [20]: MC4R antagonists, dose response, counter-screen for LGR2 antagonist project, cell-based, plate reader, cherry pick (AID 743444).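 Note: transfected HEK 293 cells stimulated with alpha-MSH peptide; potency of inhibitors of the alpha-MSH evoked signal.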 Type of assay: functional. For orientation: A counterscreen serves to expose hits that act by an unwanted route or on another target.
Assay [21] in a line: cytotoxicity in OVCAR8 ovarian cancer cells, dose response, PAX8 project, cell-based, plate reader, dry powder samples (AID 743197). Type of assay: functional. As to conditions: OVCAR-8.
Assay [22] can be described thus: HEK293 cell cytotoxicity, dose response, cytotoxicity control, plate reader, cherry-picked samples (AID 743446). Type of assay: functional, cell-based.
A short description of assay [23]: P. falciparum 3D7-ScDHODH growth inhibitors, dose response, SYBR Green, dry powder samples (AID 1159570).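 Note: parasite growth measured after 72 hours of compound exposure.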 It counts as functional, cell-based.
The nature of assay [24]: HepG2 cell cytotoxicity, dose response, cytotoxicity control, plate reader, dry powder samples (AID 1159569).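 Note: inhibitor potency with signal falling toward the positive control level.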 Type of assay: functional, cell-based.
Assay [25] in a line: P. falciparum Dd2 growth inhibitors, dose response, SYBR Green, cherry-picked samples (AID 1159567). It counts as functional, cell-based.
Assay [26] is described as follows: P. falciparum Dd2 growth inhibitors, dose response, SYBR Green, dry powder samples (AID 1159566).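 Note: potency for growth inhibition with lower SYBR green DNA signal.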 It counts as functional, cell-based.
Assay [27] can be described thus: P. falciparum ATP4 D1247Y mutant growth inhibitors, dose response, NITD609-resistant line, SYBR Green, dry powder (AID 1159571).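 Note: parasites synchronized at ring stage by sorbitol before testing.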 Type of assay: functional, cell-based.
A short description of assay [28]: HepG2 cell cytotoxicity, dose response, cytotoxicity control, cherry-picked samples (AID 1159577). It counts as functional, cell-based.
A short description of assay [29]: Concentration-dependent survival of SW480 colon cancer line, luminescence detection with CellTiter-Glo, half-maximal inhibitory concentration (AID 1117338). Type of assay: functional.
Assay [30] is described as follows: RKO cell viability reduction, dose response, CellTiter-Glo luminescence (AID 1117322). Type of assay: functional.
Assay [31] is described as follows: cytotoxicity toward HCT116 cells – cell-based, CellTiter-Glo luminescence, IC50, dose response (AID 1117332). Type of assay: functional. As to conditions: HCT-116.
Assay [32] is described as follows: SNU-C1 cell viability reduction, dose response, CellTiter-Glo luminescence (AID 1117323). It counts as functional, cell-based.
The nature of assay [33]: cytotoxicity toward Colo320 cells – cell-based, CellTiter-Glo luminescence, IC50, dose response (AID 1117334). It counts as functional. As to conditions: COLO 320.
Assay [34] in a line: cytotoxicity toward HT-29 cells – cell-based, CellTiter-Glo luminescence, IC50, dose response (AID 1117330). Type of assay: functional.
A short description of assay [35]: CellTiter-Glo luminescent dose response of DLD-1 viability loss (AID 1117352). Type of assay: functional.
The nature of assay [36]: HCT116 cell viability decrease, GSK3B pretreatment – CellTiter-Glo, IC50, dose response (AID 1117339). Type of assay: functional. As to conditions: HCT-116.

Sequence of Mitogen-activated protein kinase 10 (P53779 whole entry): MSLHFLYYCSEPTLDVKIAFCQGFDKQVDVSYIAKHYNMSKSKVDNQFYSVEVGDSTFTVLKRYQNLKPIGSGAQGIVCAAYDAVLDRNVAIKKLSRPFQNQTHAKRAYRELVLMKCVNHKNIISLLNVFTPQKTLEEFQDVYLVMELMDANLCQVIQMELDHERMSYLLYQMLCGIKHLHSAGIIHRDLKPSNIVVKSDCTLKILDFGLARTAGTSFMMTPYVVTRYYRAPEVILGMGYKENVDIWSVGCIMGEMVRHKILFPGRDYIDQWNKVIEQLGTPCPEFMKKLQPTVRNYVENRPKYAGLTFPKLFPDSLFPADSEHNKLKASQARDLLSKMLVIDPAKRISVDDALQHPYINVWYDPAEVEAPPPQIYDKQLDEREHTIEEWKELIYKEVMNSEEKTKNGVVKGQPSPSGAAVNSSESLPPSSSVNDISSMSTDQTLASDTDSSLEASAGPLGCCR
Sequence of Protein Tat (P04608 whole entry): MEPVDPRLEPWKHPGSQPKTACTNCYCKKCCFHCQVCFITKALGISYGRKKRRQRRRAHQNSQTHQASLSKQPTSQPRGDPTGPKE
Sequence of Sphingosine 1-phosphate receptor 2 (O95136 whole entry): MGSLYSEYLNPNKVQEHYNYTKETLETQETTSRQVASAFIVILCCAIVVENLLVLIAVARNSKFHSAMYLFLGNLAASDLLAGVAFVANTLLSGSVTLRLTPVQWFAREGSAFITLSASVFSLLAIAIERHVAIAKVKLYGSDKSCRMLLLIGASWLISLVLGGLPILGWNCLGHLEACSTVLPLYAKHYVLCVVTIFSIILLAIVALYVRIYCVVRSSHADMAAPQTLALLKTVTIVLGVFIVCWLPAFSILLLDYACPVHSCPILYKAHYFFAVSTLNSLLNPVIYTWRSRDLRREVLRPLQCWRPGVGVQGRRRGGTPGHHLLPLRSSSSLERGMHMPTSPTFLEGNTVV
Sequence of Paired box protein Pax-8 (Q06710 whole entry): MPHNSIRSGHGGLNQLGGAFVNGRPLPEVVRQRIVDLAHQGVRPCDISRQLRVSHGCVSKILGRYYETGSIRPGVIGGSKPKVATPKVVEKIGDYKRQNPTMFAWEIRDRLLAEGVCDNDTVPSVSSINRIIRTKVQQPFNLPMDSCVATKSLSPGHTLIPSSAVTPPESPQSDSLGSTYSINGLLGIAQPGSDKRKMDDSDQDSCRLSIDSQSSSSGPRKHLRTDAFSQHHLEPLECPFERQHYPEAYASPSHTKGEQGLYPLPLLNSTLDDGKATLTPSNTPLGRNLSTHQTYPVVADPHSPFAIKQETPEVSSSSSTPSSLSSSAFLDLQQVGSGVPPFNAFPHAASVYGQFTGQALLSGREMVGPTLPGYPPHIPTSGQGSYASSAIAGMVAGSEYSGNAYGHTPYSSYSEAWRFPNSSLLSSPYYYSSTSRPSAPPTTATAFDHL
Sequence of FAD-linked sulfhydryl oxidase ALR (P55789 whole entry): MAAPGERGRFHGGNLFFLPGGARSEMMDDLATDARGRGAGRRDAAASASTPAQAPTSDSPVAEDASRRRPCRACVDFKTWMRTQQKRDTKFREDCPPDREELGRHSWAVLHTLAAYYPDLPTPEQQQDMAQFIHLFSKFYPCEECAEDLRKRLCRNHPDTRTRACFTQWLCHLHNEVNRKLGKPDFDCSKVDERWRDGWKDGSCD

For `CCC(CC)c1nc2cc(OC)c(OC)cc2c(=O)o1`, the 50% inhibitory concentration (IC50) in [1] was > 100 µM (active).
With `Cc1cc(NC(=O)CSC2=Nc3ccccc3C3=NC(Cc4ccccc4)C(=O)N23)[nH]n1` (stereo unspecified), in assay [2], the IC50 is 11.3 µM (not active).
In the case of `CC(=O)N1CCN(c2ccc(NCc3ccc(F)cc3)cc2)CC1`, the concentration at half-maximal activity (AC50) in [3] was 0.198 µM (active). In addition, the results for the IC50 in [4] and in assay [5] were 12.9 µM (active) and > 100 µM (inconclusive), respectively.
Regarding `Cc1cc(C)cc(N2CC(C(=O)O)CC2=O)c1` (stereo unspecified), the figures for the IC50 in assay [6] and in assay [7] were > 109 µM (inactive) and > 83.4 µM (inactive), respectively.
Take `COc1ccccc1NC(=O)c1ccc(C(=O)Nc2ccccc2OC)nc1`: the EC50 in assay [8] is 0.0686 µM (active).
On to `Cn1c(-c2c(N)n(CCCc3ccccc3)c3nc4ccccc4nc23)nc2ccccc21`, for which the IC50 in assay [9] is 8 µM (active). Further, the results for the EC50 in [10] and in assay [11] were 1.17 µM (active) and > 30 µM (not active), respectively.
Consider `O=C(Cc1ccc(-c2ccccc2)cc1)NC1CCCC1`, for which the IC50 is > 109 µM (inactive) in assay [6] and > 83.2 µM (inactive) in [7].
With `COC(=O)c1c(C#N)c(N)nc2c1CCCC2`, the IC50 in assay [2] was 60.1 µM (not active).
Regarding `O=C(C1CC1)N1C[C@@H]2N[C@H](C1)[C@@H]2c1ccc(-c2ccncc2)cc1`, the concentration at half-maximal activity (AC50) is 2.98 µM (active) in assay [12]; 12.2 µM (active) in [13]; 12.7 µM (active) in [14]; 13.2 µM (active) in assay [15]; 2.89 µM (active) in assay [16]; 21.4 µM (active) in assay [17]. Moreover, the AC50 in assay [18] was 13.1 µM (active); in assay [19] it was 5.41 µM (active); in assay [20] it was 4.85 µM (active); in assay [21], 12.1 µM (active); in assay [22] it was 24.5 µM (active); in assay [23], 0.629 µM (active). The AC50 in assay [24] was > 100 µM (inactive); in [25], 0.965 µM (active); in [26], 0.555 µM (active); in assay [27] it was 0.974 µM (active).
With `OC[C@H]1[C@@H](c2ccc(-c3cccc(F)c3)cc2)[C@@H]2CN(CCC(F)(F)F)CCCCN12`, the half-maximal activity concentration (AC50) in [23] is 1.12 µM (active); in assay [24], 12.8 µM (active); in assay [25], 1.84 µM (active); in assay [26], 0.618 µM (active); in assay [28], 28.5 µM (active); in [27], 0.832 µM (active).
Take `CCC=CCC=CCC=CCCCCCCCC(=O)O`: the IC50 in assay [29], in assay [30], in assay [31], in assay [32], in assay [33] and in assay [34] was > 20 µM (inactive) in each case. Further, the IC50 in assay [35] and in assay [36] was > 20 µM (inactive) throughout.
In the case of `C[C@@H]1CN([C@@H](C)CO)C(=O)Cc2cc(NC(=O)Nc3ccc(F)cc3)ccc2O[C@H]1CN(C)Cc1ccc(Oc2ccccc2)cc1`, the AC50 in assay [25] is 1.5 µM (active); in [28], 15.1 µM (active).

The term IC50 denotes the concentration that inhibits the measured activity by half. The term AC50 denotes the concentration at which the activity in the assay is half-maximal. One may read the EC50 as the concentration giving half of the maximal effect.
